# Like-named read-outs stand apart in the source and are kept apart here.
# How the values were obtained:
# [1] = target: sigma sites labeled by 4-[125I]PEMP in guinea pig brain membranes; type: binding; conditions: read-out: Ki against 4-[125I]PEMP
# Procedure: (§1) Intact adherent cells were washed (2×1 mL) with 10 mM phosphate buffer (pH=7.2). […] Each data point represent an average of three values. The cells were incubated at 37° C. for 1 hr. and subsequently washed with phosphate buffer (10 mM; pH 7.2) (3×1 mL). The cells were then dissolved in 0.2 N NaOH (1.0 mL) and the activity counted on a Beckman (DP 5500) Gamma Counter. A similar procedure was repeated with 2-[^125I]BP with MCF-7, MDA-MB 231 and T47D breast cancer cells.
# (§2) The affinity of compounds for sites labeled by 4-[^125I]PEMP was determined by homologous and heterologous in vitro competitive binding assays in intact MCF-7 breast cancer cells and guinea pig brain membranes labeled by 4-[^125I]PEMP. The assays were prepared according to the procedure described in Example 14.
# [2] = tested on: sites labeled by 4-[125I]PEMP in MCF-7 breast tumor cells
# Procedure: as §1, §2
# PCP = PCP binding, rat brain, [3H]TCP; conditions: Table 2 of Example 9
# Sigma-1 [3] = target: T1, Sigma-1 (Cavia porcellus, UniProt Q60492); experiment: Sigma-1 binding assay, guinea pig brain membranes, [3H]-(+)-pentazocine (Example 9)
# Procedure: A plasma membrane-mitochondrial (P2) membrane fraction was prepared from frozen guinea pig brains (Pel-Freeze, Rogers, Ak.), minus cerebellum. The brain tissue was thawed slowly before homogenization. A crude P2 membrane fraction was also prepared from the livers of Sprague-Dawley rats (150-220 g, Taconic Farms). The animals were decapitated and their livers were minced and homogenized. The tissue homogenization was carried out at 4° C. in 10 mM tris-HCl/0.32 M sucrose, pH=7.4 using 10 motor-driven strokes in a Potter-Elvehjem Teflon glass homogenizer. The crude homogenate was centrifuged for 10 min at 1000 g and the crude nuclear (P1) pellet was discarded. Supernatants were centrifuged at 31000×g for 15 min to yield a plasma membrane-mitochondrial pellet (P2). This pellet was resuspended in 3 ml/g in 10 mM tris-HCl, pH 7.4 and used for binding studies. Protein concentrations were determined by the method of Lowry.
# Filters were washed twice with ice-cold 10 mM tris-HCL. Prior to use, filters were soaked in 0.5% polyethyleneimine for about 30 min at 25° C.
# (§4) When the assay was terminated, the membranes were filtered and the filtrate washed twice as above. The radioactivity was counted in Ecoscint (National Diagnostics, Manville, N.J.) after an overnight extraction of counts.
# (§5) Ki values were calculated from the IC50 values using Cheng-Prusoff equation.
# [4] = target: MUSC (muscarinic receptors); type: binding; conditions: read-out: Ki MUSC RAT BRAIN [3H]QNB
# DOPAMINE D-2 = target: T2, DOPAMINE D-2 (Rattus norvegicus, UniProt P61169); experiment: Dopamine D-2 binding, rat brain, [3H]-(−)-sulpiride; conditions: Table 2 of Example 9
# T2 construct: from tissue
# Sigma-2 [5] = target: T3, Sigma-2 (Rattus norvegicus, UniProt Q5U3Y7); experiment: Sigma-2 binding assay, rat liver membranes, [3H]DTG + dextrallorphan (Example 9)
# T3 sequence (Q5U3Y7 1-176): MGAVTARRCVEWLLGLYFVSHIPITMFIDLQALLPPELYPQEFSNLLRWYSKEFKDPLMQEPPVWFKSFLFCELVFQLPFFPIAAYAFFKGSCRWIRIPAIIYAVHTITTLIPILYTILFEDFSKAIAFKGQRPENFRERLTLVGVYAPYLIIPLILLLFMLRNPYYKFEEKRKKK
# [6] = tested on: MCF-7 breast cancer cells; design: species or system human; conditions: read-out: Kd, saturable binding
# Text: The cells were adherent and split weekly in a 1:20 ratio using trypsin/EDTA (GIBCO).
# [7] = target: T4, sigma sites labeled by 4-[125I]BP in MCF-7 breast cancer cells (Homo sapiens, UniProt Q5BJF2); experiment: Homologous and heterologous competition for 4-[125I]BP binding in intact MCF-7 cells; conditions: 37° C. for 1 hr., unit printed in b378 only, not in the table
# T4 construct: Intact adherent cells were washed (2×1 mL) with 10 mM phosphate buffer; endogenous in cells; host or cells: intact adherent MCF-7 breast cancer cells
# [8] = tested on: Sigma-1 sites, MCF-7 breast adenocarcinoma
# [9] = tested on: human adenocarcinoma xenograft (NCI-838); experiment: Scintigraphic imaging of nude mouse bearing human lung adenocarcinoma xenograft; type: in vivo, Balb/c nu/nu mice; conditions: 24 and 30 hrs. post-injection
# Procedure: (§3) A2058 cells, derived from a brain metastasis of human malignant melanoma (Todaro et al. 1980 Proc. Natl. Acad. Sci. USA 77: 5258) were obtained from the National Institutes of Health. A human lung adenocarcinoma cell line, NCI-838, was obtained from the National Cancer Institute. These cells were grown in DMEM2 medium (Dulbecco's modification of Eagle's medium, […]) supplemented with 10% fetal bovine serum and 0.03% L-glutamine.
# Balb/c nu/nu mice (17-22 g) bearing human melanoma or non-small cell lung carcinoma xenograft tumors were injected intravenously with 0.2 ml of saline solution containing [^131I]PAB or [^131I]DAB (150-200 μCi). The animals were anesthetized with ketamine containing rompun before the imaging studies. […]
# [10] = tested on: human melanoma xenograft tumors (A2058); experiment: Scintigraphic imaging of nude mice bearing human melanoma xenografts; type: in vivo, Balb/c nu/nu mice
# Procedure: as §3
# Balb/c nu/nu mice (17-22 g) bearing human melanoma or non-small cell lung carcinoma xenograft tumors were injected intravenously with 0.2 ml of saline solution containing [^131I]PAB or [^131I]DAB (150-200 μCi). The animals were anesthetized with ketamine containing rompun before the imaging studies. The images were obtained using a scintigraphic camera with a pin-hole collimator at 6 and 24 hr. post injection.
# [11] = target: Sigma-1 sites, T47D breast ductal carcinoma
# [12] = tested on: A2058 human malignant melanoma cells; experiment: In vitro competitive binding of nonradioactive IPAB against [125I]PAB in A2058 cells; conditions: 37° C. for 5 hr., read-out: Ki, nonradioactive IPAB inhibiting binding of radioactive IPAB
# Procedure: These cells were grown in DMEM2 medium (Dulbecco's modification of Eagle's medium, EMEM) supplemented with 10% fetal bovine serum and 0.03% L-glutamine.
# A2058 cells, grown as described above, were harvested with calcium and magnesium free phosphate buffer (0.1 M) containing 0.02% EDTA. Cells were washed twice with ice-cold RPMI 1640 medium (Gibco) without glutamine and resuspended in the same medium. Carrier-free [^125I]PAB (0.1 ml) was added to eight aliquots of 0.1 ml test A2058 cells (1.5×10^6 cells in suspension). To observe competitive binding by non-radioactive IPAB, varying concentrations of non-radioactive IPAB were added in a volume of 0.1 ml. Cells were incubated at 37° C. for 5 hr. after addition of radioactive and nonradioactive IPAB.
# After incubation, cells were collected by centrifugation for 5 min and washed twice with RPMI 1640 medium. The radioactivity bound to cells was counted using a Packard Autogamma 5650 scintillation counter.
# Data were analyzed with an INPLOT® iterative, non-linear least square curve fitting program.
# Sigma-1 [13] = target: T1, Sigma-1; experiment: Sigma-1 binding assay, guinea pig brain membranes, [3H]-(+)-pentazocine (Example 8); conditions: read-out: Ki Sigma-1 Guinea Pig Brain; 3 nM [3H]-(+)-pentazocine, 60 min at 37° C.
# Procedure: (§6) A crude P2 membrane fraction was also prepared from the livers of rat Sprague-Dawley rats (150-220 g, Taconic Farms) liver. The animals were decapitated and their livers were minced and homogenized. The tissue homogenization was carried out at 4° C. in ml/g tissue weight of 10 mM Tris-HCl/0.32 M sucrose, pH=7.4 using 10 motor-driven strokes in a Potter-Elvehjem Teflon glass homogenizer. The crude homogenate was centrifuged for 10 min at 1000 g and the crude nuclear (P1) pellet was discarded. Supernatants were centrifuged at 31000 g for 15 min to yield a plasma membrane-mitochondrial pellet (P2). This pellet was resuspended in 3 ml/g in 10 mM tris-HCl, pH 7.4 and used for binding studies. Protein concentrations were determined by the method of Lowry.
# (§7) Filters were washed twice with ice-cold buffer. Prior to use, filters were soaked in 0.5% polyethyleneimine for about 30 min at 25° C.
# as §4, §5
# Sigma-2 [14] = target: T3, Sigma-2; experiment: Sigma-2 binding assay, rat liver membranes, [3H]DTG + dextrallorphan (Example 8); conditions: read-out: Ki Sigma-2 Rat Liver; 3 nM [3H]DTG, 1 micromolar dextrallorphan
# Procedure: as §6, §7, §4, §5
# [15] = target: T5, Sigma-2, rat C6 glioma cells (Rattus norvegicus, UniProt Q5U3Y7); experiment: Sigma-2 binding assay, C6 glioma cell homogenates, [3H]DTG + dextrallorphan (Example 8); conditions: read-out: Ki Sigma-2 C6 Glioma Cells; 3 nM [3H]DTG, 1 micromolar dextrallorphan
# T5 sequence (Q5U3Y7 1-176): T3 sequence (Q5U3Y7 1-176)
# Procedure: as §7, §4, §5
# [16] = read-out: Ki SIGMA-1 GUINEA PIG BRAIN [3H]-(+)-PENT, Table 2 of Example 9, 120 min at 25° C.
# [17] = read-out: Ki SIGMA-2 RAT LIVER [3H]DTG + DEX, Table 2 of Example 9
# T4 sequence (Q5BJF2 whole entry): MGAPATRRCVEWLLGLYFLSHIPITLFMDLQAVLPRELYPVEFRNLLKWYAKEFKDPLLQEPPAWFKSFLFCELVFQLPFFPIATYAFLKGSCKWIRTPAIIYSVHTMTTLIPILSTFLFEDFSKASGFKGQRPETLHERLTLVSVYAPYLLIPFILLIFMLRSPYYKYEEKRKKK
# T1 sequence (Q60492 whole entry): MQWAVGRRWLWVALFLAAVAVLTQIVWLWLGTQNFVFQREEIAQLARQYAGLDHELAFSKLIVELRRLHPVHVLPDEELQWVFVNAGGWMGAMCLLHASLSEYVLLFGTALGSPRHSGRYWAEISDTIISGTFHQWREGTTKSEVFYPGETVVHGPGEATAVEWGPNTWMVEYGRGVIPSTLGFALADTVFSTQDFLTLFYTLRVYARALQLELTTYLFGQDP
# T2 sequence (P61169 whole entry): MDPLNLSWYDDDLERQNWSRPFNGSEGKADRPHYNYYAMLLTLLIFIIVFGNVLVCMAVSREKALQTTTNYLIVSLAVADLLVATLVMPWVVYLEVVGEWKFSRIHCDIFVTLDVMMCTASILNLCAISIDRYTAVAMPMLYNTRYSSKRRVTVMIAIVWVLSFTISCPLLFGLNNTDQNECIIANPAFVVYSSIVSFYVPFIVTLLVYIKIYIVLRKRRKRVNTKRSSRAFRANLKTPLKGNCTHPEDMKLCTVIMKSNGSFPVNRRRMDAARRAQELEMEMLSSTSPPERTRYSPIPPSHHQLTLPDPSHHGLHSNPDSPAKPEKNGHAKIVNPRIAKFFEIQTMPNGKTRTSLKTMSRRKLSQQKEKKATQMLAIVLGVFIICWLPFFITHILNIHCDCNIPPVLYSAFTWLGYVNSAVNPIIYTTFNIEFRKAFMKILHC
compound,measurement,setting,value
CN(CCc1ccc(Cl)c(Cl)c1)CCN1CCCC1 [BD1008],Ki,[1],5.6 nM
same,inhibition of specific binding of 4-[125I]PEMP,[2],"high affinity, concentration-dependent inhibition of specific binding"
"O=C(NC1CCN(Cc2ccccc2)CC1)c1ccccc1I [2-IBP, (N-Benzylpiperidin-4-yl)-2-iodobenzamide]",Ki,PCP,> 100000 nM
same,Ki,Sigma-1 [3]; [16],1.64 ± 0.15 nM
same,Ki,[4],> 100000 nM
same,Ki,DOPAMINE D-2,63.4 ± 10.8 nM
same,Ki,Sigma-2 [5]; [17],29.6 ± 0.49 nM
"O=C(NC1CCN(Cc2ccccc2)CC1)c1ccc(I)cc1 [4-[^125I]BP, ^125I-(N-Benzylpiperidin-4-yl)-4-iodobenzamide]",Kd,[6],26 nM
"O=C(NC1CCN(Cc2ccccc2)CC1)c1ccc(I)cc1 [4-IBP, (N-Benzylpiperidin-4-yl)-4-iodobenzamide]",Ki,PCP,> 100000 nM
same,Ki,[7],4.8 ± 2 nM
same,Ki,[4],> 100000 nM
same,Ki,DOPAMINE D-2,382 ± 39 nM
same,Ki,Sigma-2 [5]; [17],25.2 ± 1.28 nM
"CC(C)=CCN1CCC2(C)c3cc(O)ccc3CC1C2C (single isomer, unassigned; (+)) [(+)-Pentazocine]",specific binding to sigma-1 sites,[8],little or no specific binding
same,Ki,[1],35.9 nM
"O=C(NC1CCN(Cc2ccccc2)CC1)c1cccc(I)c1 [3-IBP, (N-Benzylpiperidin-4-yl)-3-iodobenzamide]",Ki,PCP,> 100000 nM
same,Ki,Sigma-1 [3]; [16],3.02 ± 1.06 nM
same,Ki,[4],> 100000 nM
same,Ki,DOPAMINE D-2,24.8 ± 0.02 nM
same,Ki,Sigma-2 [5]; [17],84.6 ± 2.5 nM
CCCN1CCC[C@H](c2cccc(O)c2)C1 [(+)-PPP],Ki,[7],> 1000 nM
"CN(CCc1ccc(Br)cc1)CCN1CCCCC1 [Br-PEMP, N-[2-(4-Bromophenyl)ethyl]-N-methyl-2-(1-piperidinyl)ethylamine]",Ki,Sigma-1 [3],6.27 nM
same,Ki,Sigma-2 [5],51.8 nM
O=C(CCCN1CCC2(CC1)C(=O)NCN2c1ccccc1)c1ccc(F)cc1 [Spiperone],Ki,[7],247 ± 37 nM
^131I(2-Piperidinylaminoethyl)4-iodobenzamide [[^131I]PAB],"visualization of implanted tumor, scintigraphic image",[9],easily visualized the implanted tumor
same,"detection in the tumor, scintigraphic image",[10]; 6 and 24 hrs. post injection,detected only within the tumor
same,"uptake in the liver, scintigraphic image",[10]; 6 and 24 hrs. post-administration,Little or no
CC(C)=CCN1CC[C@]2(C)c3cc(O)ccc3C[C@H]1[C@H]2C [[^3H] (+)-pentazocine],specific binding to sigma-1 sites,[8],No specific binding
same,Kd,[11]; read-out: Kd1 Sigma-1,6.62 nM
same,Kd,[11]; read-out: Kd4 Sigma-1,261 nM
"CN(CCc1ccc(I)cc1)CCN1CCCCC1 [4-IPEMP, N-[(4-I-iodophenyl)ethyl]-N-methyl-2-(1-piperidinyl)-ethylamine]",Ki,Sigma-1 [3],7.02 nM
same,Ki,Sigma-2 [5],52.6 nM
"O=C(NCCN1CCCCC1)c1ccc(I)cc1 [IPAB, (2-Piperidinylaminoethyl)4-iodobenzamide]",Ki,[12],6.8 nM
same,Ki,Sigma-1 [13],0.89 nM
same,Ki,Sigma-2 [14],24 nM
same,Ki,[15],130 nM
